Legend:
Assay in all cases: B2 Post-Emergence Efficacy - Test 2
Assay type in all cases: in vivo
Conditions in all cases: 15 days after application, 0-100 scale
[1] = tested on: Bromus tectorum (BROTE)
Outline: (§1)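 Visual phytotoxicity on a 0–100 scale, where 100 means total kill, was recorded 15 days following a single post-emergence spray. The spray was an aqueous dilution of active ingredient in IF50 with 0.2% v/v Genapol X080, applied to 12-day-old plants.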

[2] = tested on: Euphorbia hetrophylla (EPHHL)
Outline: as §1

[3] = tested on: Kochia scoparia (KSHSC)
Outline: as §1

[4] = tested on: Polygonum convolvulus (POLCO)
Outline: as §1

SMILES: Cc1nn(C)c(=O)c(-c2c(F)ccc(Cl)c2CCc2ccc(C#N)cc2)c1O [Compound 1.024, 4-[3-chloro-6-fluoro-2-[2-[4-(cyano)phenyl]ethyl]phenyl]-5-hydroxy-2,6-dimethyl-pyridazin-3-one]
- Herbicidal activity BROTE ([1]; 15 g/Ha): 0
- Herbicidal activity BROTE ([1]; 30 g/Ha): 0
- Herbicidal activity BROTE ([1]; 60 g/Ha): 10
- Herbicidal activity BROTE ([1]; 125 g/Ha): 20
- Herbicidal activity BROTE ([1]; 250 g/Ha): 40
- Herbicidal activity BROTE ([1]; 500 g/Ha): 70
- Herbicidal activity EPHHL ([2]; 15 g/Ha): 70
- Herbicidal activity EPHHL ([2]; 30 g/Ha): 90
- Herbicidal activity EPHHL ([2]; 60 g/Ha): 90
- Herbicidal activity EPHHL ([2]; 125 g/Ha): 90
- Herbicidal activity EPHHL ([2]; 250 g/Ha): 100
- Herbicidal activity EPHHL ([2]; 500 g/Ha): 100
- Herbicidal activity KCHSC ([3]; 15 g/Ha): 0
- Herbicidal activity KCHSC ([3]; 30 g/Ha): 0
- Herbicidal activity KCHSC ([3]; 60 g/Ha): 0
- Herbicidal activity KCHSC ([3]; 125 g/Ha): 10
- Herbicidal activity KCHSC ([3]; 250 g/Ha): 10
- Herbicidal activity KCHSC ([3]; 500 g/Ha): 20
- Herbicidal activity POLCO ([4]; 15 g/Ha): 80
- Herbicidal activity POLCO ([4]; 60 g/Ha): 90
- Herbicidal activity POLCO ([4]; 125 g/Ha): 90
- Herbicidal activity POLCO ([4]; 250 g/Ha): 90
- Herbicidal activity POLCO ([4]; 500 g/Ha): 100

SMILES: Cc1nn(C)c(=O)c(-c2c(F)ccc(Cl)c2CCc2ccc(C(F)(F)F)nc2)c1O [Compound 1.042, 4-[3-chloro-6-fluoro-2-[2-[6-(trifluoromethyl)-3-pyridyl]ethyl]phenyl]-5-hydroxy-2,6-dimethyl-pyridazin-3-one]
- Herbicidal activity BROTE ([1]; 15 g/Ha): 20
- Herbicidal activity BROTE ([1]; 30 g/Ha): 30
- Herbicidal activity BROTE ([1]; 60 g/Ha): 70
- Herbicidal activity BROTE ([1]; 125 g/Ha): 80
- Herbicidal activity BROTE ([1]; 250 g/Ha): 80
- Herbicidal activity BROTE ([1]; 500 g/Ha): 90
- Herbicidal activity EPHHL ([2]; 15 g/Ha): 80
- Herbicidal activity EPHHL ([2]; 30 g/Ha): 90
- Herbicidal activity EPHHL ([2]; 60 g/Ha): 90
- Herbicidal activity EPHHL ([2]; 125 g/Ha): 100
- Herbicidal activity EPHHL ([2]; 250 g/Ha): 100
- Herbicidal activity EPHHL ([2]; 500 g/Ha): 100
- Herbicidal activity KCHSC ([3]; 15 g/Ha): 0
- Herbicidal activity KCHSC ([3]; 30 g/Ha): 10
- Herbicidal activity KCHSC ([3]; 60 g/Ha): 10
- Herbicidal activity KCHSC ([3]; 125 g/Ha): 20
- Herbicidal activity KCHSC ([3]; 250 g/Ha): 30
- Herbicidal activity KCHSC ([3]; 500 g/Ha): 60
- Herbicidal activity POLCO ([4]; 15 g/Ha): 80
- Herbicidal activity POLCO ([4]; 30 g/Ha): 80
- Herbicidal activity POLCO ([4]; 60 g/Ha): 90
- Herbicidal activity POLCO ([4]; 125 g/Ha): 90
- Herbicidal activity POLCO ([4]; 250 g/Ha): 90
- Herbicidal activity POLCO ([4]; 500 g/Ha): 100

SMILES: Cc1nn(C)c(=O)c(-c2c(F)ccc(Cl)c2CCc2ccc(F)cc2)c1O [Compound 1.048, 4-[3-chloro-6-fluoro-2-[2-(4-fluorophenyl)ethyl]phenyl]-5-hydroxy-2,6-dimethyl-pyridazin-3-one]
- Herbicidal activity BROTE ([1]; 15 g/Ha): 0
- Herbicidal activity BROTE ([1]; 30 g/Ha): 10
- Herbicidal activity BROTE ([1]; 60 g/Ha): 20
- Herbicidal activity BROTE ([1]; 125 g/Ha): 50
- Herbicidal activity BROTE ([1]; 250 g/Ha): 60
- Herbicidal activity BROTE ([1]; 500 g/Ha): 70
- Herbicidal activity EPHHL ([2]; 15 g/Ha): 50
- Herbicidal activity EPHHL ([2]; 30 g/Ha): 70
- Herbicidal activity EPHHL ([2]; 60 g/Ha): 90
- Herbicidal activity EPHHL ([2]; 125 g/Ha): 90
- Herbicidal activity EPHHL ([2]; 250 g/Ha): 100
- Herbicidal activity EPHHL ([2]; 500 g/Ha): 100
- Herbicidal activity KCHSC ([3]; 15 g/Ha): 0
- Herbicidal activity KCHSC ([3]; 30 g/Ha): 0
- Herbicidal activity KCHSC ([3]; 60 g/Ha): 10
- Herbicidal activity KCHSC ([3]; 125 g/Ha): 20
- Herbicidal activity KCHSC ([3]; 250 g/Ha): 50
- Herbicidal activity KCHSC ([3]; 500 g/Ha): 80
- Herbicidal activity POLCO ([4]; 15 g/Ha): 60
- Herbicidal activity POLCO ([4]; 30 g/Ha): 70
- Herbicidal activity POLCO ([4]; 60 g/Ha): 90
- Herbicidal activity POLCO ([4]; 125 g/Ha): 90
- Herbicidal activity POLCO ([4]; 250 g/Ha): 90
- Herbicidal activity POLCO ([4]; 500 g/Ha): 90

SMILES: Cc1nn(C)c(=O)c(-c2c(F)ccc(Cl)c2CCc2ccccc2C(F)(F)F)c1O [Compound 1.066, 4-[3-chloro-6-fluoro-2-[2-[2-(trifluoromethyl)phenyl]ethyl]phenyl]-5-hydroxy-2,6-dimethyl-pyridazin-3-one]
- Herbicidal activity BROTE ([1]; 15 g/Ha): 0
- Herbicidal activity BROTE ([1]; 30 g/Ha): 20
- Herbicidal activity BROTE ([1]; 60 g/Ha): 60
- Herbicidal activity BROTE ([1]; 125 g/Ha): 70
- Herbicidal activity BROTE ([1]; 250 g/Ha): 80
- Herbicidal activity BROTE ([1]; 500 g/Ha): 90
- Herbicidal activity EPHHL ([2]; 15 g/Ha): 60
- Herbicidal activity EPHHL ([2]; 30 g/Ha): 70
- Herbicidal activity EPHHL ([2]; 60 g/Ha): 80
- Herbicidal activity EPHHL ([2]; 125 g/Ha): 90
- Herbicidal activity EPHHL ([2]; 250 g/Ha): 100
- Herbicidal activity EPHHL ([2]; 500 g/Ha): 100
- Herbicidal activity KCHSC ([3]; 15 g/Ha): 0
- Herbicidal activity KCHSC ([3]; 30 g/Ha): 0
- Herbicidal activity KCHSC ([3]; 60 g/Ha): 0
- Herbicidal activity KCHSC ([3]; 125 g/Ha): 10
- Herbicidal activity KCHSC ([3]; 250 g/Ha): 20
- Herbicidal activity KCHSC ([3]; 500 g/Ha): 20
- Herbicidal activity POLCO ([4]; 15 g/Ha): 70
- Herbicidal activity POLCO ([4]; 30 g/Ha): 80
- Herbicidal activity POLCO ([4]; 60 g/Ha): 90
- Herbicidal activity POLCO ([4]; 125 g/Ha): 90
- Herbicidal activity POLCO ([4]; 250 g/Ha): 100
- Herbicidal activity POLCO ([4]; 500 g/Ha): 100

SMILES: Cc1nn(C)c(=O)c(-c2c(F)ccc(Cl)c2CCc2ccc(Cl)cc2)c1OC(=O)C(C)C [Compound 1.089, [5-[3-chloro-2-[2-(4-chlorophenyl)ethyl]-6-fluoro-phenyl]-1,3-dimethyl-6-oxo-pyridazin-4-yl] 2-methylpropanoate]
- Herbicidal activity BROTE ([1]; 15 g/Ha): 0
- Herbicidal activity BROTE ([1]; 30 g/Ha): 0
- Herbicidal activity BROTE ([1]; 60 g/Ha): 10
- Herbicidal activity BROTE ([1]; 125 g/Ha): 30
- Herbicidal activity BROTE ([1]; 250 g/Ha): 60
- Herbicidal activity BROTE ([1]; 500 g/Ha): 70
- Herbicidal activity EPHHL ([2]; 15 g/Ha): 80
- Herbicidal activity EPHHL ([2]; 30 g/Ha): 100
- Herbicidal activity EPHHL ([2]; 60 g/Ha): 100
- Herbicidal activity EPHHL ([2]; 125 g/Ha): 100
- Herbicidal activity EPHHL ([2]; 250 g/Ha): 100
- Herbicidal activity EPHHL ([2]; 500 g/Ha): 100
- Herbicidal activity KCHSC ([3]; 15 g/Ha): 10
- Herbicidal activity KCHSC ([3]; 30 g/Ha): 20
- Herbicidal activity KCHSC ([3]; 60 g/Ha): 50
- Herbicidal activity KCHSC ([3]; 125 g/Ha): 60
- Herbicidal activity KCHSC ([3]; 250 g/Ha): 60
- Herbicidal activity KCHSC ([3]; 500 g/Ha): 60

SMILES: Cc1nn(C)c(=O)c(-c2c(F)ccc(Cl)c2CCc2ccc(F)cc2)c1OC(=O)C(C)C [Compound 1.125, [5-[3-chloro-6-fluoro-2-[2-(4-fluorophenyl)ethyl]phenyl]-1,3-dimethyl-6-oxo-pyridazin-4-yl] 2-methylpropanoate]
- Herbicidal activity BROTE ([1]; 15 g/Ha): 0
- Herbicidal activity BROTE ([1]; 30 g/Ha): 0
- Herbicidal activity BROTE ([1]; 60 g/Ha): 0
- Herbicidal activity BROTE ([1]; 125 g/Ha): 0
- Herbicidal activity BROTE ([1]; 250 g/Ha): 10
- Herbicidal activity BROTE ([1]; 500 g/Ha): 10
- Herbicidal activity EPHHL ([2]; 15 g/Ha): 90
- Herbicidal activity EPHHL ([2]; 30 g/Ha): 90
- Herbicidal activity EPHHL ([2]; 60 g/Ha): 100
- Herbicidal activity EPHHL ([2]; 125 g/Ha): 100
- Herbicidal activity EPHHL ([2]; 250 g/Ha): 100
- Herbicidal activity EPHHL ([2]; 500 g/Ha): 100
- Herbicidal activity KCHSC ([3]; 15 g/Ha): 0
- Herbicidal activity KCHSC ([3]; 30 g/Ha): 2
- Herbicidal activity KCHSC ([3]; 60 g/Ha): 30
- Herbicidal activity KCHSC ([3]; 125 g/Ha): 50
- Herbicidal activity KCHSC ([3]; 250 g/Ha): 60
- Herbicidal activity KCHSC ([3]; 500 g/Ha): 70
- Herbicidal activity POLCO ([4]; 15 g/Ha): 90
- Herbicidal activity POLCO ([4]; 30 g/Ha): 90
- Herbicidal activity POLCO ([4]; 60 g/Ha): 90
- Herbicidal activity POLCO ([4]; 125 g/Ha): 90
- Herbicidal activity POLCO ([4]; 250 g/Ha): 90
- Herbicidal activity POLCO ([4]; 500 g/Ha): 90

— patent US20230301300A1, “HERBICIDAL COMPOSITIONS” (SYNGENTA CROP PROTECTION AG, priority 2020, published 2023)
